Measurements from PubChem BioAssay (NCI).
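96-well plates; 48 h exposure; 5 concentrations. Endpoints by linear interpolation between flanking doses. Not reached: highest tested concentration assigned. TGI is the concentration that stops growth completely.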

Columns and labels:
Assay in all cases: growth of human tumour cells (NCI), 48 h
A549 NSCLC = test system: A549 NSCLC
CCRF-CEM leukemia = test system: CCRF-CEM leukemia
COLO 205 colon = test system: COLO 205 colon
DMS 114 small cell lung = test system: DMS 114 small cell lung
EKVX NSCLC = test system: EKVX NSCLC
HCT-116 colon = test system: HCT-116 colon
HL-60(TB) leukemia = test system: HL-60(TB) leukemia
HOP-62 NSCLC = test system: HOP-62 NSCLC
HOP-92 NSCLC = test system: HOP-92 NSCLC
HT29 colon = test system: HT29 colon
IGROV1 ovarian = test system: IGROV1 ovarian
K-562 leukemia = test system: K-562 leukemia
KM12 colon = test system: KM12 colon
KM20L2 colon = test system: KM20L2 colon
LXFL 529 NSCLC = test system: LXFL 529 NSCLC
M14 melanoma = test system: M14 melanoma
M19-MEL melanoma = test system: M19-MEL melanoma
MALME-3M melanoma = test system: MALME-3M melanoma
MOLT-4 leukemia = test system: MOLT-4 leukemia
NCI-H23 lung = test system: NCI-H23 lung
NCI-H460 lung = test system: NCI-H460 lung
NCI-H522 lung = test system: NCI-H522 lung
OVCAR-3 ovarian = test system: OVCAR-3 ovarian
OVCAR-4 ovarian = test system: OVCAR-4 ovarian
OVCAR-5 ovarian = test system: OVCAR-5 ovarian
OVCAR-8 ovarian = test system: OVCAR-8 ovarian
RPMI-8226 leukemia = test system: RPMI-8226 leukemia
RXF 393 renal = test system: RXF 393 renal
SF-268 CNS = test system: SF-268 CNS
SF-295 CNS = test system: SF-295 CNS
SF-539 CNS = test system: SF-539 CNS
SK-MEL-2 melanoma = test system: SK-MEL-2 melanoma
SK-MEL-28 melanoma = test system: SK-MEL-28 melanoma
SK-MEL-5 melanoma = test system: SK-MEL-5 melanoma
SK-OV-3 ovarian = test system: SK-OV-3 ovarian
SN12C renal = test system: SN12C renal
SNB-19 CNS = test system: SNB-19 CNS
SNB-75 CNS = test system: SNB-75 CNS
SR leukemia = test system: SR leukemia
SW-620 colon = test system: SW-620 colon
TK-10 renal = test system: TK-10 renal
U251 CNS = test system: U251 CNS
UACC-257 melanoma = test system: UACC-257 melanoma
UACC-62 melanoma = test system: UACC-62 melanoma
UO-31 renal = test system: UO-31 renal
XF 498 CNS = test system: XF 498 CNS
786-0 renal = test system: 786-0 renal
ACHN renal = test system: ACHN renal
CAKI-1 renal = test system: CAKI-1 renal
DLD-1 colon = test system: DLD-1 colon
HCC-2998 colon = test system: HCC-2998 colon
HCT-15 colon = test system: HCT-15 colon
SNB-78 CNS = test system: SNB-78 CNS

Measured: TGI

COc1ccc(N2C(Cl)C(=O)C2c2c[nH]c3ccccc23)cc1 (configuration not stated)
> 100 µM: A549 NSCLC | CCRF-CEM leukemia | COLO 205 colon | DMS 114 small cell lung | EKVX NSCLC | HCT-116 colon | HL-60(TB) leukemia | HOP-62 NSCLC | HOP-92 NSCLC | HT29 colon | IGROV1 ovarian | K-562 leukemia | KM12 colon | KM20L2 colon | LXFL 529 NSCLC | M14 melanoma | M19-MEL melanoma | MALME-3M melanoma | MOLT-4 leukemia | NCI-H23 lung | NCI-H460 lung | NCI-H522 lung | OVCAR-3 ovarian | OVCAR-4 ovarian | OVCAR-5 ovarian | OVCAR-8 ovarian | RPMI-8226 leukemia | RXF 393 renal | SF-268 CNS | SF-295 CNS | SF-539 CNS | SK-MEL-2 melanoma | SK-MEL-28 melanoma | SK-MEL-5 melanoma | SK-OV-3 ovarian | SN12C renal | SNB-19 CNS | SNB-75 CNS | SR leukemia | SW-620 colon | TK-10 renal | U251 CNS | UACC-257 melanoma | UACC-62 melanoma | UO-31 renal | XF 498 CNS

COc1cccc(/C=C(\NC(C)=O)c2nc3ccc(Cl)cc3[nH]2)c1
> 100 µM: 786-0 renal | A549 NSCLC | ACHN renal | CAKI-1 renal | CCRF-CEM leukemia | COLO 205 colon | DLD-1 colon | DMS 114 small cell lung | EKVX NSCLC | HCC-2998 colon | HCT-15 colon | HOP-92 NSCLC | HT29 colon | IGROV1 ovarian | K-562 leukemia | KM12 colon | KM20L2 colon | LXFL 529 NSCLC | M14 melanoma | M19-MEL melanoma | MALME-3M melanoma | MOLT-4 leukemia | NCI-H23 lung | NCI-H522 lung | OVCAR-3 ovarian | OVCAR-4 ovarian | OVCAR-5 ovarian | OVCAR-8 ovarian | RXF 393 renal | SF-268 CNS | SF-295 CNS | SF-539 CNS | SK-MEL-2 melanoma | SK-MEL-28 melanoma | SK-MEL-5 melanoma | SK-OV-3 ovarian | SN12C renal | SNB-19 CNS | SNB-78 CNS | SR leukemia | SW-620 colon | TK-10 renal | U251 CNS | UACC-62 melanoma | UO-31 renal | XF 498 CNS
